Measured values published in PMC5218480 (PLoS ONE, 2017).

System: MV-4-11 cells
Test: Gene expression microarray analysis (Affymetrix PrimeView) and GSEA
Format: cell-based, human
Set-up: RFU PODN (11730768_x_at) / Fold change /veh PODN (11730768_x_at) / RFU LINC00158 (11744669_a_at) / Fold change /veh LINC00158 (11744669_a_at) / RFU DUSP10 (11751237_a_at) / Fold change /veh DUSP10 (11751237_a_at) / RFU ID3 (11757404_x_at) / Fold change /veh ID3 (11757404_x_at) / RFU PLEKHG5 (11737974_s_at) / Fold change /veh PLEKHG5 (11737974_s_at) / RFU LRRC4B (11730491_at) / Fold change /veh LRRC4B (11730491_at) / RFU GIMAP4 (11747438_a_at) / Fold change /veh GIMAP4 (11747438_a_at) / RFU KRT8 (11758183_x_at) / Fold change /veh KRT8 (11758183_x_at) / RFU CNN1 (11734310_a_at) / Fold change /veh CNN1 (11734310_a_at) / RFU VPS37D (11726825_at) / Fold change /veh VPS37D (11726825_at) / RFU C10orf10 (11716522_x_at) / Fold change /veh C10orf10 (11716522_x_at) / RFU KIR2DL2 /// KIR2DL4 /// KIR2DL5A /// KIR2DL5B /// KIR2DS1 /// KIR2DS2 /// KIR2DS3 /// KIR2DS4 /// KIR3DL3 /// KIR3DL3 /// KIR3DS1 (11738374_at) / Fold change /veh KIR2DL2 /// KIR2DL4 /// KIR2DL5A /// KIR2DL5B /// KIR2DS1 /// KIR2DS2 /// KIR2DS3 /// KIR2DS4 /// KIR3DL3 /// KIR3DL3 /// KIR3DS1 (11738374_at) / RFU C1QL1 (11718748_at) / Fold change /veh C1QL1 (11718748_at) / RFU TMPRSS4 (11747572_a_at) / Fold change /veh TMPRSS4 (11747572_a_at) / RFU HAMP (11756126_x_at) / Fold change /veh HAMP (11756126_x_at) / RFU RNFT2 (11725882_a_at) / Fold change /veh RNFT2 (11725882_a_at) / RFU NR4A2 (11747474_a_at) / Fold change /veh NR4A2 (11747474_a_at) / RFU ABCC12 (11746883_a_at) / Fold change /veh ABCC12 (11746883_a_at) / RFU TMEM136 (11760407_x_at) / Fold change /veh TMEM136 (11760407_x_at) / RFU CLDN22 /// WWC2 (11732394_at) / Fold change /veh CLDN22 /// WWC2 (11732394_at) / RFU HLA-DPB1 (11760878_x_at) / Fold change /veh HLA-DPB1 (11760878_x_at) / RFU SPINT1 (11716480_a_at) / Fold change /veh SPINT1 (11716480_a_at) / RFU GAP43 (11754022_s_at) / Fold change /veh GAP43 (11754022_s_at) / RFU A4GNT (11735810_at) / Fold change /veh A4GNT (11735810_at) / RFU PRB3 (11715151_x_at) / Fold change /veh PRB3 (11715151_x_at) / RFU TUBB4B (11761932_at) / Fold change /veh TUBB4B (11761932_at) / RFU CAPN14 (11732068_a_at) / Fold change /veh CAPN14 (11732068_a_at) / RFU TMCC2 (11721928_a_at) / Fold change /veh TMCC2 (11721928_a_at) / RFU IRGQ (11745062_a_at) / Fold change /veh IRGQ (11745062_a_at) / RFU FAM174B (11720279_a_at) / Fold change /veh FAM174B (11720279_a_at) / RFU TMPRSS4 (11748680_a_at) / Fold change /veh TMPRSS4 (11748680_a_at) / RFU FAM212B (11763350_a_at) / Fold change /veh FAM212B (11763350_a_at) / RFU PLEKHG5 (11743358_a_at) / Fold change /veh PLEKHG5 (11743358_a_at) / RFU ZSCAN30 (11745921_a_at) / Fold change /veh ZSCAN30 (11745921_a_at) / RFU CMKLR1 (11741424_a_at) / Fold change /veh CMKLR1 (11741424_a_at) / RFU LOC101060620 /// MAPK8IP1 (11723275_at) / Fold change /veh LOC101060620 /// MAPK8IP1 (11723275_at) / RFU SPTSSB (11747773_x_at) / Fold change /veh SPTSSB (11747773_x_at) / RFU PRSS12 (11739890_at) / Fold change /veh PRSS12 (11739890_at) / RFU BIN1 (11741810_x_at) / Fold change /veh BIN1 (11741810_x_at) / RFU WNT11 (11732464_a_at) / Fold change /veh WNT11 (11732464_a_at) / RFU C10orf10 (11716521_a_at) / Fold change /veh C10orf10 (11716521_a_at) / RFU C5orf56 (11738089_at) / Fold change /veh C5orf56 (11738089_at) / RFU CYB561 (11721691_x_at) / Fold change /veh CYB561 (11721691_x_at) / RFU ANKRD19P (11752326_a_at) / Fold change /veh ANKRD19P (11752326_a_at) / RFU OR2T12 /// OR2T33 /// OR2T8 (11738714_s_at) / Fold change /veh OR2T12 /// OR2T33 /// OR2T8 (11738714_s_at) / RFU VCAN (11748164_a_at) / Fold change /veh VCAN (11748164_a_at) / RFU JSRP1 (11732532_at) / Fold change /veh JSRP1 (11732532_at) / RFU KRTAP10-11 (11738290_x_at) / Fold change /veh KRTAP10-11 (11738290_x_at) / RFU MYO3A (11730013_a_at) / Fold change /veh MYO3A (11730013_a_at) / RFU EBF3 (11725865_a_at) / Fold change /veh EBF3 (11725865_a_at) / RFU CAMK2N1 (11719241_x_at) / Fold change /veh CAMK2N1 (11719241_x_at) / RFU C5orf56 (11738088_a_at) / Fold change /veh C5orf56 (11738088_a_at) / RFU OLFML3 (11715873_a_at) / Fold change /veh OLFML3 (11715873_a_at) / RFU LOC100653217 /// NTM (11731650_a_at) / Fold change /veh LOC100653217 /// NTM (11731650_a_at) / RFU MAPK11 (11762145_a_at) / Fold change /veh MAPK11 (11762145_a_at) / RFU FIZ1 (11724087_x_at) / Fold change /veh FIZ1 (11724087_x_at) / RFU OASL (11726364_x_at) / Fold change /veh OASL (11726364_x_at) / RFU SOX15 (11748057_x_at) / Fold change /veh SOX15 (11748057_x_at) / RFU CD79A (11719716_a_at) / Fold change /veh CD79A (11719716_a_at) / RFU HIST1H1D (11736915_at) / Fold change /veh HIST1H1D (11736915_at) / RFU CASKIN2 (11723855_a_at) / Fold change /veh CASKIN2 (11723855_a_at) / RFU LOC730098 (11760151_x_at) / Fold change /veh LOC730098 (11760151_x_at) / RFU OR4N2 (11742367_at) / Fold change /veh OR4N2 (11742367_at) / RFU PRRT2 (11749266_a_at) / Fold change /veh PRRT2 (11749266_a_at) / RFU SNX32 (11753110_a_at) / Fold change /veh SNX32 (11753110_a_at) / RFU CDHR5 (11726645_a_at) / Fold change /veh CDHR5 (11726645_a_at) / RFU RCAN1 (11760418_a_at) / Fold change /veh RCAN1 (11760418_a_at) / RFU FAM167A (11723789_a_at) / Fold change /veh FAM167A (11723789_a_at) / RFU FAM26E (11764081_at) / Fold change /veh FAM26E (11764081_at) / RFU ISYNA1 (11749810_s_at) / Fold change /veh ISYNA1 (11749810_s_at) / RFU ACY1 (11761880_at) / Fold change /veh ACY1 (11761880_at) / RFU 11764098_at / Fold change /veh 11764098_at / RFU SAMD14 (11745864_x_at) / Fold change /veh SAMD14 (11745864_x_at) / RFU NPB (11741838_a_at) / Fold change /veh NPB (11741838_a_at) / RFU TMPRSS6 (11731388_a_at) / Fold change /veh TMPRSS6 (11731388_a_at) / RFU KRTAP10-2 (11738614_at) / Fold change /veh KRTAP10-2 (11738614_at) / RFU ARHGAP8 /// PRR5-ARHGAP8 (11727945_x_at) / Fold change /veh ARHGAP8 /// PRR5-ARHGAP8 (11727945_x_at) / RFU KRTAP5-7 /// NADSYN1 (11734609_at) / Fold change /veh KRTAP5-7 /// NADSYN1 (11734609_at) / RFU RASL12 (11751679_a_at) / Fold change /veh RASL12 (11751679_a_at) / RFU CDKN2B (11736163_a_at) / Fold change /veh CDKN2B (11736163_a_at) / RFU PRF1 (11729649_at) / Fold change /veh PRF1 (11729649_at) / RFU, ZNF638 /// ZNF638-IT1 / Fold change vs veh, ZNF638 /// ZNF638-IT1 / RFU, PANK3 / Fold change vs veh, PANK3 / RFU, SH3YL1 / Fold change vs veh, SH3YL1 / RFU, ZEB2 / Fold change vs veh, ZEB2 / RFU, NRIP1 / Fold change vs veh, NRIP1 / RFU, PTTG1IP / Fold change vs veh, PTTG1IP / RFU, CAPN2 / Fold change vs veh, CAPN2 / RFU, MED14 / Fold change vs veh, MED14 / RFU, SNORA58 / Fold change vs veh, SNORA58 / RFU, C1orf63 / Fold change vs veh, C1orf63 / RFU, LRRFIP1 / Fold change vs veh, LRRFIP1 / RFU, NDUFAF7 / Fold change vs veh, NDUFAF7 / RFU, SLC12A2 / Fold change vs veh, SLC12A2 / RFU, IBTK / Fold change vs veh, IBTK / RFU, ESF1 / Fold change vs veh, ESF1 / Fold change vs veh, TMEM50B / RFU, TAOK1 / Fold change vs veh, TAOK1 / RFU, ACBD3 / Fold change vs veh, ACBD3 / RFU, TMA16 / Fold change vs veh, TMA16 / RFU, RWDD3 / Fold change vs veh, RWDD3 / RFU, BCAT1 / Fold change vs veh, BCAT1 / RFU, EDEM3 / Fold change vs veh, EDEM3 / RFU, TMEM33 / Fold change vs veh, TMEM33 / RFU, WDR75 / Fold change vs veh, WDR75 / RFU, AHCTF1 / Fold change vs veh, AHCTF1 / RFU, TFRC / Fold change vs veh, TFRC / RFU, ZDHHC17 / Fold change vs veh, ZDHHC17 / RFU, NOM1 / Fold change vs veh, NOM1 / RFU, ARL8B / Fold change vs veh, ARL8B / RFU, ZBTB11 / Fold change vs veh, ZBTB11 / RFU, TAMM41 / Fold change vs veh, TAMM41 / RFU, KIAA1704 /// LOC100996395 / Fold change vs veh, KIAA1704 /// LOC100996395 / RFU, ING1 / Fold change vs veh, ING1 / RFU, TRMT61B / Fold change vs veh, TRMT61B / RFU, FUBP3 / Fold change vs veh, FUBP3 / RFU, TP53 / Fold change vs veh, TP53 / RFU, TNKS2 / Fold change vs veh, TNKS2 / RFU, ZFP14 / Fold change vs veh, ZFP14 / RFU, ACTR2 / Fold change vs veh, ACTR2 / RFU, PPP3R1 / Fold change vs veh, PPP3R1 / RFU, PIK3R1 / Fold change vs veh, PIK3R1 / RFU, HNRNPA1 / Fold change vs veh, HNRNPA1 / RFU, RNF170 / Fold change vs veh, RNF170 / RFU, ZNF28 / Fold change vs veh, ZNF28 / RFU, RNGTT / Fold change vs veh, RNGTT / RFU, OGT / Fold change vs veh, OGT / RFU, BRD1 / Fold change vs veh, BRD1 / RFU, MARS / Fold change vs veh, MARS / RFU, ZNF655 / Fold change vs veh, ZNF655 / RFU, FAHD1 / Fold change vs veh, FAHD1 / RFU, BDP1 / Fold change vs veh, BDP1 / RFU, LRRCC1 / Fold change vs veh, LRRCC1 / RFU, ARID1A / Fold change vs veh, ARID1A / RFU, ZNF146 / Fold change vs veh, ZNF146 / RFU, ZNF330 / Fold change vs veh, ZNF330 / RFU, GPN3 / Fold change vs veh, GPN3 / RFU, C9orf123 / Fold change vs veh, C9orf123 / RFU, N4BP2L2 / Fold change vs veh, N4BP2L2 / RFU, ARFIP1 / Fold change vs veh, ARFIP1 / RFU, FAM179B / Fold change vs veh, FAM179B / RFU, BCL10 / Fold change vs veh, BCL10 / RFU, UHRF1BP1L / Fold change vs veh, UHRF1BP1L / RFU, BET1 / Fold change vs veh, BET1 / RFU, CNOT2 / Fold change vs veh, CNOT2 / RFU, ZNF268 / Fold change vs veh, ZNF268 / Fold change vs veh, ZNF507 / RFU, DGCR2 / Fold change vs veh, DGCR2 / RFU, WDSUB1 / Fold change vs veh, WDSUB1 / Fold change vs veh, HSP90B1 /// MIR3652 / RFU, ADSS / Fold change vs veh, ADSS / RFU, GK / Fold change vs veh, GK / RFU, ZNF148 / Fold change vs veh, ZNF148 / RFU, TAF9 / Fold change vs veh, TAF9 / RFU, SLC1A5 / Fold change vs veh, SLC1A5 / RFU, SLMO2 / Fold change vs veh, SLMO2 / RFU, ABCC4 / Fold change vs veh, ABCC4 / RFU, LOC101060439 /// RAP1B / Fold change vs veh, LOC101060439 /// RAP1B / RFU, RFX7 / Fold change vs veh, RFX7 / RFU, GTPBP10 / Fold change vs veh, GTPBP10 / RFU, CNEP1R1 / Fold change vs veh, CNEP1R1 / RFU, BIVM-ERCC5 /// ERCC5 / Fold change vs veh, BIVM-ERCC5 /// ERCC5 / RFU, ILF3 / Fold change vs veh, ILF3 / RFU 11762660_at / Fold change /veh 11762660_at / RFU VCAN (11757783_s_at) / Fold change /veh VCAN (11757783_s_at) / RFU DDX43 (11728927_at) / Fold change /veh DDX43 (11728927_at) / RFU KRT8 (11758188_x_at) / Fold change /veh KRT8 (11758188_x_at) / RFU NKD1 (11759106_at) / Fold change /veh NKD1 (11759106_at) / RFU SRD5A1 (11742802_a_at) / Fold change /veh SRD5A1 (11742802_a_at) / RFU TPSAB1 /// TPSB2 (11721975_s_at) / Fold change /veh TPSAB1 /// TPSB2 (11721975_s_at) / RFU GSTM3 (11746129_a_at) / Fold change /veh GSTM3 (11746129_a_at) / RFU IL23R (11737362_x_at) / Fold change /veh IL23R (11737362_x_at) / RFU TMEM51 (11727254_a_at) / Fold change /veh TMEM51 (11727254_a_at) / RFU PIWIL2 (11732686_x_at) / Fold change /veh PIWIL2 (11732686_x_at) / RFU ORM1 (11744905_x_at) / Fold change /veh ORM1 (11744905_x_at) / RFU CCDC152 (11743942_at) / Fold change /veh CCDC152 (11743942_at) / RFU ECM1 (11717891_a_at) / Fold change /veh ECM1 (11717891_a_at) / RFU IL23R (11748794_a_at) / Fold change /veh IL23R (11748794_a_at) / RFU TNFAIP8L3 (11732012_x_at) / Fold change /veh TNFAIP8L3 (11732012_x_at) / RFU MBOAT4 (11741988_at) / Fold change /veh MBOAT4 (11741988_at) / RFU 11764193_at / Fold change /veh 11764193_at / RFU TMEM53 (11763286_at) / Fold change /veh TMEM53 (11763286_at) / RFU MAGEB2 (11727129_at) / Fold change /veh MAGEB2 (11727129_at) / RFU TMEM200A (11744735_a_at) / Fold change /veh TMEM200A (11744735_a_at) / RFU CCDC152 (11751479_a_at) / Fold change /veh CCDC152 (11751479_a_at) / RFU FAM211A (11726209_a_at) / Fold change /veh FAM211A (11726209_a_at) / RFU RGS16 (11746705_a_at) / Fold change /veh RGS16 (11746705_a_at) / RFU VCAN (11755009_s_at) / Fold change /veh VCAN (11755009_s_at) / RFU RHOB (11743442_s_at) / Fold change /veh RHOB (11743442_s_at) / RFU RGS16 (11720943_a_at) / Fold change /veh RGS16 (11720943_a_at) / RFU RGS16 (11720944_at) / Fold change /veh RGS16 (11720944_at) / RFU, VPS4B / Fold change vs veh, VPS4B / RFU, CREB1 / Fold change vs veh, CREB1 / RFU, DNAJC13 / Fold change vs veh, DNAJC13 / RFU, GNAQ / Fold change vs veh, GNAQ / RFU, CDK5R1 / Fold change vs veh, CDK5R1 / RFU, ZRANB3 / Fold change vs veh, ZRANB3 / RFU, CUL4A / Fold change vs veh, CUL4A / RFU, CCNY / Fold change vs veh, CCNY / RFU, UFL1 / Fold change vs veh, UFL1 / RFU, COG3 / Fold change vs veh, COG3 / RFU, DIAPH2 / Fold change vs veh, DIAPH2 / RFU, SKA2 / Fold change vs veh, SKA2 / RFU, AFF3 / Fold change vs veh, AFF3 / RFU, LMF1 / Fold change vs veh, LMF1 / RFU, IPO11 / Fold change vs veh, IPO11 / RFU, DFFB / Fold change vs veh, DFFB / RFU, FOXP1 / Fold change vs veh, FOXP1 / RFU, CARD8 / Fold change vs veh, CARD8 / RFU, STRN3 / Fold change vs veh, STRN3 / RFU, ADK / Fold change vs veh, ADK / RFU, RASSF2 / Fold change vs veh, RASSF2 / RFU, WIPF1 / Fold change vs veh, WIPF1 / RFU, LARP1B / Fold change vs veh, LARP1B / RFU, RASA1 / Fold change vs veh, RASA1 / RFU, RB1 / Fold change vs veh, RB1 / RFU, PPFIA1 / Fold change vs veh, PPFIA1 / RFU, MAT2A / Fold change vs veh, MAT2A / RFU, CCT5 / Fold change vs veh, CCT5 / RFU, WDR92 / Fold change vs veh, WDR92 / RFU, CUX1 / Fold change vs veh, CUX1 / RFU, TTC7A / Fold change vs veh, TTC7A / RFU, TMEM135 / Fold change vs veh, TMEM135 / RFU, DEPTOR / Fold change vs veh, DEPTOR / RFU, CPM / Fold change vs veh, CPM / RFU, DNAJB6 / Fold change vs veh, DNAJB6 / RFU, CACNA2D3 / Fold change vs veh, CACNA2D3 / RFU, DTX4 / Fold change vs veh, DTX4 / RFU, TFCP2 / Fold change vs veh, TFCP2 / RFU, GMCL1 /// GMCL1P1 / Fold change vs veh, GMCL1 /// GMCL1P1 / RFU, AEBP2 / Fold change vs veh, AEBP2 / RFU, SNHG1 /// SNORD22 /// SNORD25 /// SNORD26 /// SNORD27 /// SNORD28 /// SNORD29 /// SNORD31 / Fold change vs veh, SNHG1 /// SNORD22 /// SNORD25 /// SNORD26 /// SNORD27 /// SNORD28 /// SNORD29 /// SNORD31 / Fold change (Aza/veh), C12orf56 (ProbeSet 11735607_a_at) / Fold change (ACY-1035/veh), C12orf56 (ProbeSet 11735607_a_at) / Fold change (Aza/veh), FGFR1OP (ProbeSet 11751329_s_at) / Fold change (ACY-1035/veh), FGFR1OP (ProbeSet 11751329_s_at) / Fold change (Aza/veh), VPS36 (ProbeSet 11739960_a_at) / Fold change (ACY-1035/veh), VPS36 (ProbeSet 11739960_a_at) / RFU SYPL1 (11715823_x_at) / Fold change /veh SYPL1 (11715823_x_at) / RFU IGFBP7 (11715501_s_at) / Fold change /veh IGFBP7 (11715501_s_at) / RFU REEP3 (11722064_at) / Fold change /veh REEP3 (11722064_at) / RFU IGLL1 (11728026_x_at) / Fold change /veh IGLL1 (11728026_x_at): dose or concentration left out as unconfirmed
Details: ProbeSet 11741070_a_at; LIST B

SMILES: Nc1ncn([C@@H]2O[C@H](CO)[C@@H](O)[C@H]2O)c(=O)n1 [azacitidine]
- Fold change vs veh, ZNF146: 0.88
